Results on five compounds are retold here after patent US11504370B2, “Treatment of brain cancer” (Array BioPharma Inc., priority 2012, dated 2022).

Structures are written as SMILES. Read-outs that look alike come from different tables or passages of the source.

Series [1] is described as follows: Brain pharmacokinetic (PK) study in mice. The series is classed as in vivo. The note with it: for Kp at 1 h / Kp at 2 h / Kp at 4 h / concentration at 1 h / concentration at 2 h / concentration at 4 h / concentration at 0.5 h / Kp at 0.5 h: mouse; for Kp at 1 h / Kp at 2 h / Kp at 4 h / Kp at 0.5 h: brain / plasma, ARRY-380 75 mg/kg, read-out: brain:plasma ratio. How it is done:
The mice were separated into groups and their PK was studied at 4 time points (0.5, 1, 2 and 4 hours, 4 mice per group per timepoint). The animals were euthanized by CO2 inhalation at the time points. Whole blood was drawn (300 μL) by cardiac puncture and […] eppendorf tube containing ethylenediaminetetraacetic acid (“EDTA”) ([…]). The samples were centrifuged, and the plasma was decanted and frozen at -20° C. until delivered to analytical chemistry. The brains were collected. The animals were perfused with 5-10 mL of saline, and the brains were removed, weighed and placed into a fast prep tube for DMPK analysis.

Series [2] concerns NCI-N87 gastric carcinoma cells. The experiment in a line: Inhibition of NCI-N87 gastric carcinoma xenograft growth in mice implanted intracranially. The series is classed as in vivo. The following applies: 75 mg/kg PO BID; intracranial NCI-N87, nude BALB/c mice; FIG. 3. On the procedure: Anesthetized nude BALB/c female mice (Taconic Laboritories Inc., Germantown, N.Y.) were inoculated with human tumor cells (NCI-N87 gastric carcinoma cells, NCI, Bethesda, Md.) intracranially at lamba suture. 5×10^5 cells in saline were implanted via intracranial injection. The mice were separated into three groups (N=12); vehicle (acidified 30% Captisol®, pH about 4.5), 50 mg/kg lapatanib PO BID (30% Captisol®), and 75 mg/kg N4-(4-([1,2,4]triazolo[1,5-a]pyridin-7-yloxy)-3-methylphenyl)-N6-(4,4-dimethyl-4,5-dihydrooxazol-2-yl)quinazoline-4,6-diamine PO BID (acidified 30% Captisol®, pH about 4.5). Dosing began two days after implantation. The dose may have been reduced as necessary if drug-related weight loss (approximately 5%) was observed. The mice were monitored twice daily for general health and behavioral/neurological effects, and body weights (BW) were determined twice weekly. At first sign of neurological problem or body weight loss of greater than 20%, the mice were euthanized by CO2 inhalation. Brain and plasma were collected for analyses.

Series [3] has the same test system. The experiment in a line: Anti-tumor efficacy on N87 human gastric cancer in murine xenograft model (subcutaneous). The following applies: subcutaneous NCI-N87, N=8. The series is classed as in vivo, mice. How it is done:
Nude nu/nu female mice (NCI, Bethesda, Md.) were split into five groups (N=8). Tumor cells (NCI-N87 gastric carcinoma cells, NCI, Bethesda, Md. 1×10^7) were implanted into the mice via subcutaneous injection (100 μL) directly on the right flank. To ensure good tumor take, the cells should be greater than 90% viable (thus, the intitial cell suspension of 1×10^7 cells/mL were injected for 1×10^6 cells injected/100 The tumors were allowed to grow to 150±50 mm^3. The tumor size was measured, and the mice were weighed. The mice were administered vehicle (30% Captisol®, 150 g in 500 mL DI water, PO, BID), lapatanib (50 mg/kg, PO, BID, 30% Captisol®), lapatanib (100 mg/kg, PO, BID, 30% Captisol®), N4-(4-([1,2,4]triazolo[1,5-a]pyridin-7-yloxy)-3-methylphenyl)-N6-(4,4-dimethyl-4,5-dihydrooxazol-2-yl)quinazoline-4,6-diamine (50 mg/kg, PO, QD, 30% Captisol) and N4-(4-([1,2,4]triazolo[1,5-a]pyridin-7-yloxy)-3-methylphenyl)-N6-(4,4-dimethyl-4,5-dihydrooxazol-2-yl)quinazoline-4,6-diamine (100 mg/kg, PO, QD, 30% Captisol). The tumor volume was measured. The number of partial responses in the mice was as follows: lapatanib (50 mg/kg) 0, lapatanib (100 mg/kg) 1, ARRY-380 (50 mg/kg) 1, ARRY-380 (100 mg/kg) 4.
A general note: A xenograft is tissue or cells of one species grown in another, often human tumour cells in immunodeficient mice.

Series [4] can be described thus: Dissolution testing at pH 6.5 in phosphate buffer. The format is physicochemical. The note with it: pH 6.5 phosphate buffer, 37° C., about 240 minutes. How it is done:
Dissolution testing was performed at a pH of 6.5 in phosphate buffer. […] The solid dispersion was suspended in H2O and added directly to the buffer solution at 37° C. […]

The nature of series [5]: Physicochemical analysis: hygroscopicity.
Where [6] appears, read: female, nude BALB/c, 1 hour, single PO dose, lapatanib 50 mg/kg.
The mark [7] stands for this setting: female, nude BALB/c, 2 hour, single PO dose, lapatanib 50 mg/kg.
Where [8] appears, read: female, nude BALB/c, 4 hour, single PO dose, lapatanib 50 mg/kg.
The mark [9] stands for this setting: female, nude BALB/c, 1 hour, single PO dose, lapatanib 50 mg/kg, ARRY-380 75 mg/kg (AR00440993 = metabolite), perfused brain, read-out: Average Brain Concentration.
Where [10] appears, read: female, nude BALB/c, 2 hour, single PO dose, lapatanib 50 mg/kg, ARRY-380 75 mg/kg (AR00440993 = metabolite), perfused brain, read-out: Average Brain Concentration.
Where [11] appears, read: female, nude BALB/c, 4 hour, single PO dose, lapatanib 50 mg/kg, ARRY-380 75 mg/kg (AR00440993 = metabolite), perfused brain, read-out: Average Brain Concentration.
Setting [12] is: 0.5 hour, single PO dose, lapatanib 50 mg/kg, ARRY-380 75 mg/kg (AR00440993 = metabolite of ARRY-380), nude female BALB/c mice.
Setting [13] is: 1 hour, single PO dose, lapatanib 50 mg/kg, ARRY-380 75 mg/kg (AR00440993 = metabolite of ARRY-380), nude female BALB/c mice.
Setting [14] is: 2 hour, single PO dose, lapatanib 50 mg/kg, ARRY-380 75 mg/kg (AR00440993 = metabolite of ARRY-380), nude female BALB/c mice.
The mark [15] stands for this setting: 4 hour, single PO dose, lapatanib 50 mg/kg, ARRY-380 75 mg/kg (AR00440993 = metabolite of ARRY-380), nude female BALB/c mice.
The mark [16] stands for this setting: female, nude BALB/c, 0.5 hour, single PO dose, lapatanib 50 mg/kg.
[17] abbreviates: female, nude BALB/c, 0.5 hour, single PO dose, lapatanib 50 mg/kg, ARRY-380 75 mg/kg (AR00440993 = metabolite), perfused brain, read-out: Average Brain Concentration.
Setting [18] is: 50 mg/kg PO (lapatanib BID, ARRY-380 QD).
[19] abbreviates: 100 mg/kg PO (lapatanib BID, ARRY-380 QD).

For the compound `Cc1cc(Nc2ncnc3ccc(NC4=NC(C)(CO)CO4)cc23)ccc1Oc1ccn2ncnc2c1` (centres unmarked) [AR00440993, (2-((4-((4-([1,2,4]triazolo[1,5-a]pyridin-7-yloxy)-3-methylphenyl)amino)quinazolin-6-yl)amino)-4-methyl-4,5-dihydrooxazol-4-yl)methanol], the “Average Brain Concentration” value in series [1] (0.5 hour, single PO dose, lapatanib 50 mg/kg, ARRY-380 75 mg/kg (AR00440993 = metabolite), perfused brain) is “BLQ”. For the same compound, the brain penetration result in series [1] (compared with lapatanib or ARRY-380, mice, after PO ARRY-380) is “significantly higher”. The Kp at 1 h in series [1] (setting [6]) was determined as 2.08. Also, in series [1] (setting [7]), the Kp at 2 h is 0.48. Further, the Kp at 4 h in series [1] (setting [8]) came to 1.31. The concentration at 1 h was 28.9 ng/g in series [1] (setting [9]) and 67.3 µg/mL in series [1] (plasma, 1 hour, single PO dose, lapatanib 50 mg/kg, ARRY-380 75 mg/kg (AR00440993 = metabolite of ARRY-380), nude female BALB/c mice, read-out: Average Plasma Concentration). Besides, the concentration at 2 h in series [1] (setting [10]) is 35.8 ng/g; in series [1] (plasma, 2 hour, single PO dose, lapatanib 50 mg/kg, ARRY-380 75 mg/kg (AR00440993 = metabolite of ARRY-380), nude female BALB/c mice, read-out: Average Plasma Concentration), 134 µg/mL. In addition, the concentration at 4 h came to 40 ng/g in series [1] (setting [11]) and 70.4 µg/mL in series [1] (plasma, 4 hour, single PO dose, lapatanib 50 mg/kg, ARRY-380 75 mg/kg (AR00440993 = metabolite of ARRY-380), nude female BALB/c mice, read-out: Average Plasma Concentration). Also, in series [1] (plasma, 0.5 hour, single PO dose, lapatanib 50 mg/kg, ARRY-380 75 mg/kg (AR00440993 = metabolite of ARRY-380), nude female BALB/c mice, read-out: Average Plasma Concentration), the concentration at 0.5 h was 20.2 µg/mL.

Regarding `Cc1cc(Nc2ncnc3ccc(NC4=NC(C)(C)CO4)cc23)ccc1Oc1ccn2ncnc2c1` [ARRY-380, N4-(4-([1,2,4]Triazolo[1,5-a]pyridin-7-yloxy)-3-methylphenyl)-N6-(4,4-dimethyl-4,5-dihydrooxazol-2-yl)quinazoline-4,6-diamine], the Average Plasma Concentration in series [1] (setting [12]) was 3350 ng/mL; in series [1] (setting [13]), 6420 ng/mL; in series [1] (setting [14]) it was 6010 ng/mL; in series [1] (setting [15]), 2640 ng/mL. In addition, the Kp at 0.5 h in series [1] (setting [16]) was found to be 0.048. Also, the Kp at 1 h in series [1] (setting [6]) was determined as 0.048. Also, the Kp at 2 h in series [1] (setting [7]) was determined as 0.021. In series [1] (setting [8]), the Kp at 4 h is 0.019. Further, the concentration at 0.5 h in series [1] (setting [17]) worked out at 122 ng/g. Further, the concentration at 1 h in series [1] (setting [9]) is 116 ng/g. Also, in series [1] (setting [10]), the concentration at 2 h was determined as 134 ng/g. In series [1] (setting [11]), the concentration at 4 h came out at 42.1 ng/g. In addition, in series [2], the “phospho-ErbB2/total ErbB2 in the brain” value was “significantly decreases”. Also, the “number of partial responses in the mice” value came out at 1 in series [3] (setting [18]) and 4 in series [3] (setting [19]).

With `CCO.Cc1cc(Nc2ncnc3ccc(NC4=NC(C)(C)CO4)cc23)ccc1Oc1ccn2ncnc2c1.Cc1cc(Nc2ncnc3ccc(NC4=NC(C)(C)CO4)cc23)ccc1Oc1ccn2ncnc2c1` [Example 21, N4-(4-([1,2,4]triazolo[1,5-a]pyridin-7-yloxy)-3-methylphenyl)-N6-(4,4-dimethyl-4,5-dihydrooxazol-2-yl)quinazoline-4,6-diamine freebase hemi-ethanolate], in series [4], the “AUC for the free drug species” value came to 5490 ng·h/mL and the “Cmax for the free drug species” value is 0.44 µg/mL.

In the case of `CS(=O)(=O)CCNCc1ccc(-c2ccc3ncnc(Nc4ccc(OCc5cccc(F)c5)c(Cl)c4)c3c2)o1` [Lapatanib, lapatinib, reference compound], the Average Plasma Concentration in series [1] (setting [12]) came out at 1910 ng/mL; in series [1] (setting [13]), 4310 ng/mL; in series [1] (setting [14]), 1740 ng/mL; in series [1] (setting [15]) it was 1940 ng/mL. For the same compound, in series [1] (setting [16]), the Kp at 0.5 h came to 0.026. Besides, the Kp at 1 h in series [1] (setting [6]) turned out to be 0.022. For the same compound, the Kp at 2 h in series [1] (setting [7]) was 0.039. Also, the Kp at 4 h in series [1] (setting [8]) amounted to 0.038. Besides, the concentration at 0.5 h in series [1] (setting [17]) was 44.9 ng/g. Moreover, the concentration at 1 h in series [1] (setting [9]) is 90.8 ng/g. For the same compound, in series [1] (setting [10]), the concentration at 2 h turned out to be 57.4 ng/g. Moreover, in series [1] (setting [11]), the concentration at 4 h was 65.4 ng/g. Moreover, the results for the “number of partial responses in the mice” value in series [3] (setting [18]) and in series [3] (setting [19]) were 0 and 1, respectively.

With `Cc1cc(Nc2ncnc3ccc(NC4=NC(C)(C)CO4)cc23)ccc1Oc1ccn2ncnc2c1` [REF], the “Hygroscopicity (% wt change at 80% RH)” value in series [5] is on record as less than 1% wt change at 80% RH.
